From patent publication US20100239556A1, “PROMOTING ECM PRODUCTION BY FIBROBLAST CELLS AND/OR PROMOTING MIGRATION OF FIBROBLAST CELLS IN A BIOLOGICAL SYSTEM” (TGR BioScience Pty Ltd., priority 2006, published 2010)

B1: horse radish peroxidase (protein, UniProt P00433 31-338, looked up)
Peroxidase C1A: QLTPTFYDNSCPNVSNIVRDTIVNELRSDPRIAASILRLHFHDCFVNGCDASILLDNTTSFRTEKDAFGNANSARGFPVIDRMKAAVESACPRTVSCADLLTIAAQQSVTLAGGPSWRVPLGRRDSLQAFLDLANANLPAPFFTLPQLKDSFRNVGLNRSSDLVALSGGHTFGKNQCRFIMDRLYNFSNTGLPDPTLNTTYLQTLRGLCPLNGNLSALVDFDLRTPTIFDNKYYVNLEEQKGLIQSDQELFSSPNATDTIPLVRSFANSTQTFFNAFVEAMDRMGNITPLTGTQGQIRLNCRVVNSNS

Tests used:
dermis = test: Fibrogenic response after intradermal injection; assay type: in vivo, Sprague-Dawley rats
Method: Groups of up to 4-8 female Sprague-Dawley rats were lightly anaesthetized and the dorsum shaved. At different sites on their dorsum, each rat received a bolus, intradermal injection of 4 doses of a protein with peroxidase activity (LP, […]; HRP, 1.25-25 μg; SBP, 1.25-25 μg; or micro-peroxidase [MP], 5-125 μg), a vehicle control or TGFβ2 as a positive control. Arthromyces ramosus peroxidase (ARP) was also injected at one dose of 25 μg. Proteins with peroxidase activity were injected in a volume of 50 μl which was sufficient to create a small blister in the skin that resolved within a few minutes. Across the group of rats, each dose of proteins with peroxidase activity was injected into each of the different injection sites to control for any site-related, intra-rat variation. The rats were returned to their cage and left alone for 3 days after which they were killed by CO2 asphyxiation and the skin at the injection sites collected for analysis. The skin at the injection sites was excised using a 6 mm biopsy punch with each piece bisected and fixed in 10% buffered formalin. Fixed tissue was processed for histological assessment by graded dehydration and mounting in paraffin blocks. Blocks were sectioned and sections stained with haematoxylin and eosin (H&E) and Masson's trichrome for qualitative analysis by an experienced pathologist. H&E stained sections were scored for the “fibroblast reaction” (1+-4+) to reflect the number of fibroblast cells identified at the injection site, with 4+ representing the greatest response. H&E and Massons trichrome stained sections were used to evaluate the amount of deposited, collagen-rich extracellular matrix (ECM) that was associated with the fibroblast reaction at each injection site. The collagen-rich ECM deposition was scored 1+-3+ with 3+ representing the greatest response. The scores were combined across the group of rats and statistical analysis performed using a Kruskal-Wallis one way analysis of variance on ranks (ANOVA) followed by post-hoc t-test comparing the response of the proteins with peroxidase activity to the control using Dunn's or Dunnett's method, p<0.05 was considered significant.

human skin = test: Collagen I and III immunohistochemistry in ex vivo human skin (Franz cell); settings: intradermal injection 100 μl, 72 hours
Method: To confirm proteins with peroxidise activity can stimulate ECM production in human skin, studies were performed on ex vivo skin collected from tissue reduction surgery. The studies were undertaken using a modification of the OECD Test Guideline 428 (2004) Skin Absorption: in vitro method. Freshly excised human skin was collected in a
Hanks balanced salt solution (HBSS) and after being thoroughly washed in sterile, colour free DMEM/F12 media (Dulbecco's Modified Eagle Medium/Hams F12, Invitrogen) to remove surface debris, the subcutaneous fat layer was removed. Circles of full-thickness skin 15 mm in diameter were cut and placed epidermis side up on vertical glass diffusion cells of a Franz cell diffusion system (Crown Glass Co, NJ, USA). The skin was secured between two clamped ground glass joints and allowed to equilibrate and hydrate for approximately 30 minutes with the receptor chambers of the diffusion cells containing colour-free DMEM/F12+1% (v/v) of an antibiotic mix (200 mM L-glutamine, 10,000 units penicillin, 10 mg streptomycin per ml; Sigma, USA). The temperature of the jacketed diffusion cells was maintained at 34° C.±1° C. and the contents were constantly stirred using a mini magnetic stirrer. Proteins with peroxidase activity or a control were injected intradermally into the skin discs in a volume of 100 μl using a 27 gauge needle. After 72 hours the skin discs were removed and bisected with one half fixed in 4% buffered formalin for histological assessment and the other half snap frozen in liquid nitrogen for immunohistochemical detection of collagen I and III protein within the dermis. Frozen skin pieces were processed into cryoblocks, cut onto slides and fixed in acetone/methanol. All slides were blocked with 2% (w/v) bovine serum albumin (BSA) in HBSS and then incubated with either anti-human collagen type I or III primary antibodies (Chemical Credential, ICN or DakoCytomation respectively). The secondary antibody was biotinylated Multi-Link (DakoCytomation) with detection by streptavidin-biotinylated alkaline phosphatase (DakoCytomation). Visualisation was achieved by incubating each section with Naphthol AS/MX phosphate/fast red substrate containing 5 mM levamisole (Sigma). After washing, slides were counter stained with Mayer's Haematoxylin and assessed for collagen expression.

[1] = tested on: fibroblast cells isolated from an adult subject; test: Total protein incorporated into the extracellular matrix (silver stained gel); assay type: cell-based, human; settings: 10% FBS + 50 ug/ml ascorbic acid, 72 hours
Method: To ensure the soluble ECM proteins stimulated by the proteins with peroxidase activity are incorporated into the extracellular matrix generated by human fibroblast cells, given that this is a key requirement for the regeneration of collagen-rich tissues like skin and other organs and tissues, total proteins were extracted from the cell matrix. In these experiments, six well culture plates were seeded with fibroblast cells isolated from an adult subject at a density of 1.5×10^5 cells/well and after one week of culture, cells were treated with proteins with peroxidase activity in media containing 10% FBS and with the addition of ascorbic acid (vitamin C) which is a well known cofactor important for the cross linking of collagen molecules to generate polymeric fibres. Wells were supplemented daily to provide a final concentration of 50 ug/ml ascorbic acid in the media. After 72 hours the cell media was removed, the wells washed with warm PBS and the cell matrix extracted.
The total protein content of the cell matrix was solubilised by the addition of 500 ul/well of RIPA buffer (25 mM Tris-HCl pH7.4; 150 mM NaCl; 1% Triton X-100; 0.5% Na deoxycholate; 0.05% SDS). The cell matrix was scraped off the bottom of each well and the plates placed on a shaking platform for 10 minutes. The extracts were transferred to eppendorf tubes, vortexed vigorously and centrifuged at 12,000 rpm, 4° C. for 5 minutes. The DNA pellet was visualised and gently removed and the samples stored at −80° C. until assessment.
Total cell extracts were assessed by polyacrylamide gel electrophoresis. Samples were prepared by adding an appropriate amount of reduced loading buffer to neat cell extracts and boiling for 5 minutes. Samples were then loaded onto a 4-12% BisTris gradient gel (Invitrogen) together with molecular weight markers (Magic Mark XP and SeeBlue prestained markers; Invitrogen) and resolved for […] at 150V in a Novex mini-cell system (Invitrogen) using NuPage MES SDS running buffer. […]

[2] = 50 μg and 125 μg, 3 days, p<0.05
[3] = intradermal, 3 days, over the doses tested

| Molecule | deposition of collagen-rich ECM versus control (dermis; [2]) | fibroblast reaction versus vehicle control (dermis; [2]) | number of fibroblasts present at the injection site (H&E images) (dermis; LP 125 μg, TGFβ 0.5 μg, 3 days) | deposition of collagen-rich ECM versus control (dermis; [3]) | fibroblast reaction / tissue fibroblast content at the injection site versus control (dermis; [3]) | collagen III immuno-reactivity (human skin) | staining intensity for collagen I (human skin) | proteinaceous material in the extracellular matrix versus untreated control cells [1] | deposition of collagen-rich ECM versus control (dermis; 5-25 μg, 3 days, p<0.05) | tissue fibroblast content versus control (dermis; 5-25 μg, 3 days, p<0.05) | deposition of collagen rich ECM, histology score (1+-3+) (dermis; 25 μg, 72 hours) | fibroblast reaction, histology score (1+-4+) (dermis; 25 μg, 72 hours) | deposition of collagen-rich ECM versus control (dermis; 25 μg, 3 days, p<0.05) | tissue fibroblast content versus control (dermis; 25 μg, 3 days, p<0.05) |
| --- | --- | --- | --- | --- | --- | --- | --- | --- | --- | --- | --- | --- | --- | --- |
| lactoperoxidase [LP] | significant increase compared to the control | statistically significant response | profound increase in the number of fibroblasts | dose-dependent effect | dose-dependent increase in the fibroblast reaction | did not appear to affect collagen III immuno-reactivity | increased staining intensity for collagen I | produced much more proteinaceous material | – | – | – | – | – | – |
| soy bean peroxidase [SBP] | – | – | – | markedly increased | markedly increased the tissue fibroblast content | – | – | produced much more proteinaceous material | statistically significant response | statistically significant response | – | – | – | – |
| Arthromyces ramosus peroxidase [ARP] | – | – | – | – | – | – | – | – | – | – | two | two | – | – |
| microperoxidase [MP] | – | – | – | stimulated the deposition of collagen-rich ECM in a significant, dose dependent manner | significantly increased the tissue fibroblast content | increased collagen III staining | increased staining intensity for collagen I | produced much more proteinaceous material | – | – | – | – | – | – |
| B1 | – | – | – | markedly increased | markedly increased the tissue fibroblast content | increased collagen III staining | increased staining intensity for collagen I | – | – | – | – | – | statistically significant response | statistically significant response |
